Source: PubChem BioAssay (NCI)
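Protocol summary: plate cells (96-well), add compound at 5 concentrations, incubate 48 h, interpolate endpoints linearly. GI50 marks 50% less growth. TGI marks complete inhibition of growth.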

Assays:
Assay in all cases: NCI tumour cell line growth inhibition, 48 h
MCF7 breast = test system: MCF7 breast
SF-295 CNS = test system: SF-295 CNS
MDA-MB-231 breast = test system: MDA-MB-231 breast
K-562 leukemia = test system: K-562 leukemia
BT-549 breast = test system: BT-549 breast
EKVX NSCLC = test system: EKVX NSCLC
HCT-116 colon = test system: HCT-116 colon
MALME-3M melanoma = test system: MALME-3M melanoma
U251 CNS = test system: U251 CNS
CCRF-CEM leukemia = test system: CCRF-CEM leukemia

Structure (SMILES)	GI50 (MCF7 breast) [nM]	TGI (MCF7 breast) [µM]	GI50 (SF-295 CNS) [nM]	TGI (SF-295 CNS) [µM]	GI50 (MDA-MB-231 breast) [nM]	TGI (MDA-MB-231 breast) [µM]	GI50 (K-562 leukemia) [nM]	TGI (K-562 leukemia) [µM]	GI50 (BT-549 breast) [nM]	TGI (BT-549 breast) [µM]	GI50 (EKVX NSCLC) [µM]	TGI (EKVX NSCLC) [µM]	GI50 (HCT-116 colon) [nM]	TGI (HCT-116 colon) [µM]	GI50 (MALME-3M melanoma) [nM]	TGI (MALME-3M melanoma) [µM]	GI50 (U251 CNS) [nM]	TGI (U251 CNS) [µM]	GI50 (CCRF-CEM leukemia) [nM]	TGI (CCRF-CEM leukemia) [µM]
CCn1c(-c2nonc2N)nc2c(C#CCN)ncc(OCCCN)c21	> 25000	> 25	> 25000	> 25	> 25000	> 25	> 25000	> 25	> 25000	> 25	> 25	> 25	> 25000	> 25	> 25000	> 25	> 25000	> 25	> 25000	> 25
Brc1cccc(-c2cc(-c3ccc4c(c3)OCCO4)[nH]n2)c1	1060	41.2	2930	32.7	3650	32.7	584	250	1620	47.8	7.21	49.6	1130	29.4	1300	53.4	1200	33.4	1590	250
O=C(CCN1CCN(c2cnc3ccccc3n2)CC1)c1csc2ccccc12	18100	48.6	36100	> 100	26000	63	28600	> 100	14900	30	36	> 100	36200	> 100	24900	69.1	47800	> 100	19200	> 100
COc1cc(/C=C\[N+](=O)[O-])ccc1O	1630	4.28	17200	31.5	2600	8.94	3170	10.8	2390	6.51	11.8	24.6	1830	3.43	1910	4.91	2990	10.6	2250	7.23
O=C(c1ccc2ccccc2c1)c1c(C(F)(F)F)n([O-])c2cc(Cl)c(Cl)cc2[n+]1=O	1680	3.41	1660	3.06	1490	2.82	1560	3.12	1480	2.8	2.04	3.47	1580	2.92	1580	3	1610	2.96	2410	4.78
Cc1ccc2c(C(C[N+](=O)[O-])c3cccs3)c(-c3ccccc3)[nH]c2c1 (stereo not given)	1410	12.8	1150	4.54	1650	6.31	1160	> 33.3	1920	7.29	2	14.9	1310	4.56	1550	6.12	1720	7.59	1380	> 33.3
C[C@@H]1CC[C@@H]2[C@@H]1[C@H](OC(=O)/C=C/c1ccccc1)[C@]1(c3ccccc3)C[C@@H](OC(=O)CO)[C@@]2(C)O1	9190	26.5	12800	32.3	16500	34.2	7760	> 100	406	17.7	12.6	35.8	12700	27.6	16500	31.4	14200	29.3	20800	84.2
COc1ccc(C(=O)Nc2ncc(Cc3ccc(Cl)cc3)s2)cc1	38.5	> 100	56.1	1.97	176	47.3	41	> 100	1000	> 100	0.26	> 100	50.9	> 100	87	> 100	69.1	> 100	46	> 100
COC(=O)C(=O)CC(=O)CCn1ncc(Cl)c(Cl)c1=O	15600	> 100		23	7880	20.7		9.54	14400	27.7		33.8		23.7		21.3		22		9.72
CN1CCN(Cc2ccc(C(=O)Nc3cncc(C#Cc4cnc(N)c5ccccc45)c3)cc2C(F)(F)F)CC1	1670	3.39	1860	3.46	1370	2.87		1.15	12700	25.4	1.99	6.06	1360	2.7	1710	3.25	1780	3.33	2910	9.07
C#Cc1cnc(=O)n(C2CC(O)C(CO)O2)c1 (stereo not given)	> 100000	> 100	> 100000	> 100	> 100000	> 100	> 100000	> 100	> 100000	> 100	> 100	> 100	> 100000	> 100	> 100000	> 100	> 100000	> 100	13500	> 32.8
CC(CO)(CO)N=Cc1cc(I)cc(I)c1O		46.3		47.3		38.7		83.5		36.4		54.2		31.3		28.5		28.3		44.5
O=C(c1cccs1)c1c(C(F)(F)F)n([O-])c2ccccc2[n+]1=O	549	1.95	941	2.43	639	1.53	1640	8.77	908	2.37	0.798	1.55	410	1.07	850	2.53	1070	2.79	6690	13.1
COc1ccc(NC(=O)Nc2n[nH]c3ccccc23)cc1	> 100000	> 100	> 100000	> 100	> 100000	> 100	> 100000	> 100	> 100000	> 100	> 100	> 100	> 100000	> 100	> 100000	> 100	> 100000	> 100	5960	> 100
NC(CO)Cc1cnc[nH]1 (stereo not given)	> 100000	> 100	> 100000	> 100		> 100	> 100000	> 100		> 100	> 100	> 100	> 100000	> 100	> 100000	> 100	> 100000	> 100	> 100000	> 100
NC(N)=N/N=C(/c1ccccc1)c1ccc(F)cc1	296	12.1	243	2.25	649	14	380	27.7	551	2.85	0.65	36.5	330	4.15	368	22	337	5.21	493	> 74.6
CCN1CCN(c2nc(NCCCNc3ccnc4cc(Cl)ccc34)c3ccccc3n2)CC1	1930	11.1	1660	3.37	2080	5.14	2230	7.14	3450	13.6	3.03	14.4	2250	6.53	1780	3.45	2660	7.17	2880	10.3
O=C1/C(=C/c2ccc(F)cc2)CCOc2ccc([N+](=O)[O-])cc21	2910	9.29	3080	9.23	13300	31.9	964	> 100	3000	7.82	16.5	30.5	1500	3.01	2270	5.79	40100	> 100	761	3.47
